A word on the IC50: it is the concentration that inhibits the measured activity by half. By melting point is commonly meant the temperature of the solid-liquid transition.

Data set [1] can be described thus: Half life of the compounds in mice. The class given is in vivo. Conditions: for half-life: mouse, in vivo, read-out: t½ (min) in mice. As for the experimental part: A pharmacokinetic study of a novel anti-HIF-1α small molecule was performed. A stably integrated hypoxia-reporter system of glioma cells transfected with the hypoxia-reporting plasmid (described above) was utilized. A natural product-like small molecule library of 10,000 compounds was screened and the “best hit” was identified. HPLC methodology was developed for quantitatively detecting KCN-1 in plasma and other biological samples. For the pharmacokinetic study, KCN-1 (100 mg/kg) was dissolved in DMSO and administered intravenously to mice. Plasma samples were collected at given time Points (0.25, 0.5, 1, 2, 4 and 8 h) and KCN-1 levels were quantified by HPLC. The HPLC system consisted of a Varian Prostar gradient pump, a Prostar autosampler and a Prostar photo diode array detector. The column was a Luna 5μ C18 column (4.6 mm×250 mm, Phenomenex). The retention time of KCN1 and the internal standard were 8.7 and 17.7 min, respectively (FIG. 13). The in vivo stability of WZZL811S and WZ40 were measured after systemic administration of compounds over two hours (FIG. 17).
The half life of the compounds in mice where determined are also shown.

For a further data set, the target named is CXCR4 (Homo sapiens, UniProt P61073). Briefly: Competition assays: test compounds binding to CXCR4 compared to SDF-1 (Table 2).
The test system of a further data set is SHIV. In words: SHIV infection, p27 antigen capture. As to conditions: 0.1, 1, 10 or 100 nM drug prior to infection; 2 to 5 days. The data set is classed as cell-based. As for the experimental part:
The effect of the test compounds on HIV infection in model cells was analyzed by p27 antigen capture using SHIV infected cells. Cells were incubated with 0, 0.1, 1, 10 or 100 nM drug prior to infection with SHIV. Viral titer was measured after infection by analyzing levels of p27 antigen. […] The inhibition was measurable at 2 days, and continued to 5 day incubations.

[2] abbreviates: competition with SDF-1 for binding to CXCR4, read-out: IC50 (nM) vs SDF-1.

Like-named read-outs stand apart in the source and are kept apart here. Bridge positions count the residues as written; N and C are the ends. Square brackets hold non-standard residues; d marks the D form. Peptide text beside a SMILES is read from it. 2Nal = N[C@@H](Cc1ccc2ccccc2c1)C(=O)O; Cit = NC(=O)NCCC[C@H](N)C(=O)O Some results are limits rather than exact numbers.

CXCR4, sequence (P61073 whole entry): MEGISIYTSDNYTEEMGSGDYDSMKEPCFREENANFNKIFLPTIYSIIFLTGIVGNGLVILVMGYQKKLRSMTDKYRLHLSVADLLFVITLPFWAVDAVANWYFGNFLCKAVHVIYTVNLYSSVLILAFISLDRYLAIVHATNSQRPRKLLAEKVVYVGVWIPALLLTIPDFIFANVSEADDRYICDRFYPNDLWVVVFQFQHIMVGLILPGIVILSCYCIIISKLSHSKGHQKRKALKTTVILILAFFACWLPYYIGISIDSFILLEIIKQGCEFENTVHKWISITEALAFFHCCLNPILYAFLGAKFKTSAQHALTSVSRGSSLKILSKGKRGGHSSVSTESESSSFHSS

In the case of `Cc1c(C)c(CNc2ccccc2)c(C)c(C)c1CNc1ccccc1` [MSX-172], the half-life in data set [1] is less than 5 min.
As to `COc1cccc(NC(=O)c2ccc(C(=O)Nc3cccc(OC)c3)cc2)c1` [MSX-137], the IC50 at CXCR4 (setting [2]) was greater than 1000 nM.
Same read-out and setting: under `FC(F)(F)c1cccc(NCc2ccc(CNc3cccc(C(F)(F)F)c3)cc2)c1` [MSX-138] stands greater than 1000 nM; under `Clc1cccc(NCc2ccc(CNc3ncccn3)cc2)n1` [MSX-221], 1 nM.
For the molecule `CN(C)Cc1ccc(CN(C)C)cc1` [MSX-141], the IC50 at CXCR4 (setting [2]) is greater than 1000 nM.
On the same count and under the same terms, for `CN(Cc1ccc(CN(C)c2ccccc2)cc1)c1ccccc1` [MSX-164] the value was greater than 100 nM.
The same measure, in the same setting: for `c1cc(CNCc2ccc(CNCc3ccncc3)cc2)ccn1` [MSX-159s] the value was greater than 1000 nM; for `c1ccc(NC[C@H]2CC[C@@H](CNc3ccccc3)CC2)cc1` [MSX-171], greater than 1000 nM.
Turning to `c1cc(CNC2=NCCN2)ccc1CNC1=NCCN1` [MSX-133], the IC50 on CXCR4 (setting [2]) was greater than 1000 nM.
For the molecule `COc1nc(NCc2ccc(CNc3ncc(F)c(OC)n3)cc2)ncc1F` [MSX-201], the IC50 on CXCR4 (setting [2]) worked out at 1 nM.
Same read-out and setting: under `OCc1ccc(CNc2ccc(F)cn2)cc1` [MSX-186] stands greater than 1000 nM; under `Fc1ccc(NCc2ccc(CNc3ccc(F)cc3)cc2)cc1` [MSX-142], greater than 1000 nM.
Same read-out and setting: for `c1ccc(NCc2ccc(CNc3ncccn3)cc2)nc1` [MSX-198] the value was less than 100 nM.
As for `c1ccc(NCCNCc2ccc(CNCCNc3ccccc3)cc2)cc1` [WZ8], the melting point is 42 to 43 °C.
On to `O=[N+]([O-])c1cccc(NCc2ccc(CNc3cccc([N+](=O)[O-])c3)cc2)c1` [MSX-203], for which, in data set [1], the “t½ (min) in mice” value was “infinite”. Also, the IC50 on CXCR4 was determined as 1 nM.
Take `c1ccc(-c2nc(-c3ccc(-c4nc(-c5ccccc5)c(-c5ccccc5)[nH]4)cc3)[nH]c2-c2ccccc2)cc1` [MSX-130]: the IC50 at CXCR4 (setting [2]) is greater than 1000 nM.
As to `Fc1ccc(NCc2ccc(CNc3ncccn3)cc2)nc1` [MSX-197], the half-life in data set [1] is 16.5 min. At CXCR4 (setting [2]), the IC50 came to 1 nM.
Turning to `Fc1cnc(NCc2ccc(CNc3ncc(F)c(Cl)n3)cc2)nc1Cl` [MSX-192], the IC50 on CXCR4 (setting [2]) is 1 nM.
Consider `O=C(Nc1ccccc1)c1cc(C(=O)Nc2ccccc2)cc(C(=O)Nc2ccccc2)c1` [WZ20], for which the melting point fell in the range of 318 to 320 °C.
As to `Fc1ccc(NCc2ccc(CNc3ccc(F)cn3)cc2)nc1` [MSX-185], on CXCR4 (setting [2]), the IC50 is less than 100 nM.
Consider `c1ccc(OCc2ccc(COc3ccccn3)cc2)nc1` [MSX-213], for which the IC50 on CXCR4 (setting [2]) is greater than 1000 nM.
In the case of `c1cnc(NCc2ccc(CNc3ncccn3)cc2)nc1` [WZ40], the “inhibition of SHIV infection (p27 antigen)” value in the data set with SHIV is “inhibited SHIV infection at all concentrations tested”.
For `O=C(Nc1ccccc1)c1cc(CNc2ccccc2)cc(CNc2ccccc2)c1` [MSX-167], the IC50 on CXCR4 (setting [2]) was greater than 100 nM.
Take `Cc1cc(CN)c(C)cc1CN` [MSX-126]: on CXCR4 (setting [2]), the IC50 was greater than 1000 nM.
As to `COc1ccc(NCc2ccc(CNc3ccc(OC)cc3)cc2)cc1` [MSX-125], on CXCR4 (setting [2]), the half-inhibitory concentration (IC50) was greater than 10 nM.
With `N=C(N)NCCC[C@H](NC(=O)[C@@H]1CSSC[C@H](NC(=O)[C@H](Cc2ccc3ccccc3c2)NC(=O)[C@H](CCCNC(=N)N)NC(=O)[C@@H](N)CCCNC(=N)N)C(=O)N[C@@H](Cc2ccc(O)cc2)C(=O)N[C@@H](CCCNC(N)=O)C(=O)N[C@@H](CCCCN)C(=O)N[C@H](CCCCN)C(=O)N2CCC[C@H]2C(=O)N[C@@H](Cc2ccc(O)cc2)C(=O)N[C@@H](CCCNC(=N)N)C(=O)N[C@@H](CCCNC(N)=O)C(=O)N1)C(N)=O` [TN-14003, reference compound] (H-RR[2Nal]CY[Cit]K[dK]PYR[Cit]CR-NH2; disulfide 4-13 (inferred); N-terminus assumed), the IC50 at CXCR4 (setting [2]) was less than 1 nM.
Same read-out and setting: for `[O-][n+]1cccnc1NCc1ccc(CNc2nccc[n+]2[O-])cc1` [MSX-189] the value was greater than 1000 nM.
For the molecule `Fc1cccc(NCc2ccc(CNc3cccc(F)c3)cc2)c1` [MSX-184], the IC50 on CXCR4 (setting [2]) was greater than 100 nM.
The same measure, in the same setting: for `c1ccc(NCCc2ccc(CCNc3ccccc3)cc2)cc1` [MSX-170] the value was greater than 100 nM.
Consider `O=[N+]([O-])c1ccc(NCc2ccc(CNc3ccc([N+](=O)[O-])cc3)cc2)cc1` [MSX-178], for which the IC50 on CXCR4 is greater than 1000 nM.
Turning to `O=[N+]([O-])c1ccccc1NCc1ccc(CO)cc1` [MSX-202], in data set [1], the half-life was less than 5 min. Moreover, the IC50 on CXCR4 (setting [2]) stood at 1 nM.
For the molecule `c1ccc(NCCNCc2ccc(CNCCNc3ccccc3)cc2)cc1` [MSX-158], the IC50 at CXCR4 (setting [2]) is greater than 1000 nM.
With `c1ccc(NCc2ccccc2CNc2ccccc2)cc1` [MSX-176], the IC50 at CXCR4 (setting [2]) was greater than 100 nM.
For `c1ccc(NCc2c3ccccc3c(CNc3ccccc3)c3ccccc23)cc1` [MSX-174], at CXCR4 (setting [2]), the IC50 is greater than 100 nM.
As to `CN(C)CCNCc1ccc(CNCCN(C)C)cc1` [MSX-156s], the IC50 on CXCR4 (setting [2]) was greater than 1000 nM.
Still for that read-out and setting: for `N#Cc1ccc(NCc2ccc(CNc3ccc(C#N)cc3)cc2)cc1` [MSX-177] the value was greater than 1000 nM; for `c1ccc(CNCc2ccc(CNCc3ccccn3)cc2)nc1` [MSX-161s], greater than 1000 nM.
On the same count and under the same terms, under `c1cncc(CNCc2ccc(CNCc3cccnc3)cc2)c1` [MSX-160] stands greater than 1000 nM.
Consider `OCc1ccc(CNc2ncccn2)cc1` [WZ41], for which the “inhibition of SHIV infection (p27 antigen)” value in the data set on SHIV is reported as “inhibited SHIV infection at all concentrations tested”.
On to `Oc1cc(CN2CCOCC2)c(O)cc1CN1CCOCC1` [MSX-127], for which the IC50 at CXCR4 (setting [2]) was greater than 1000 nM.
Consider `FCc1ccc(CNc2ncccn2)cc1` [MSX-207], for which, in data set [1], the half-life turned out to be 11 min. Also, the IC50 at CXCR4 (setting [2]) was found to be 1 nM.
Consider `N=C(N)NCc1ccc(CNC(=N)N)cc1` [WZ5S], for which the melting point was 278 to 281 °C (dec.).
As to `Oc1ccc(NCc2ccc(CNc3ccc(O)cc3)cc2)cc1` [MSX-179], the IC50 on CXCR4 (setting [2]) is greater than 1000 nM.
`c1ccc(NCc2ccc(CNc3ccccc3)cc2)cc1` [WZ13] displayed a melting point of 126 to 127 °C.
For `Clc1nc(Cl)nc(NCc2ccc(CNc3nc(Cl)nc(Cl)n3)cc2)n1` [MSX-190], the half-life in data set [1] is less than 5 min.
For the molecule `Fc1nccc(NCc2ccc(CNc3ccnc(F)n3)cc2)n1` [MSX-193], the half-life in data set [1] came out at 30 min. Moreover, on CXCR4 (setting [2]), the IC50 came to 1 nM.
For the molecule `c1ccc(NCc2cc(CNc3ccccc3)cc(CNc3ccccc3)c2)cc1` [MSX-166], the IC50 on CXCR4 (setting [2]) was greater than 1000 nM.
As for `Fc1cccc(NCc2ccc(CNc3ncccn3)cc2)n1` [MSX-222], the half-life in data set [1] amounted to 15 min.

(Values after patent US20160002174A1, “CXCR4 Antagonists for the Treatment of Medical Disorders” (Emory University, priority 2005, published 2016).)
